Measured values from PubChem BioAssay (NCI).
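96-well plates; 48 h exposure; 5 concentrations. Endpoints by linear interpolation between flanking doses. Not reached: highest tested concentration assigned. GI50: concentration for 50% inhibition of growth. TGI: concentration producing complete growth inhibition.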

How the values were obtained:
Assay in all cases: DTP human tumour cell line panel, 48 h
A549 NSCLC = test system: A549 NSCLC
CCRF-CEM leukemia = test system: CCRF-CEM leukemia
HL-60(TB) leukemia = test system: HL-60(TB) leukemia
KM12 colon = test system: KM12 colon
M14 melanoma = test system: M14 melanoma
MALME-3M melanoma = test system: MALME-3M melanoma
SNB-75 CNS = test system: SNB-75 CNS
T-47D breast = test system: T-47D breast
U251 CNS = test system: U251 CNS
UO-31 renal = test system: UO-31 renal

SMILES	GI50 (A549 NSCLC) [nM]	TGI (A549 NSCLC) [nM]	GI50 (CCRF-CEM leukemia) [nM]	TGI (CCRF-CEM leukemia) [nM]	GI50 (HL-60(TB) leukemia) [nM]	TGI (HL-60(TB) leukemia) [nM]	GI50 (KM12 colon) [nM]	TGI (KM12 colon) [nM]	GI50 (M14 melanoma) [nM]	TGI (M14 melanoma) [nM]	GI50 (MALME-3M melanoma) [nM]	TGI (MALME-3M melanoma) [nM]	GI50 (SNB-75 CNS) [nM]	TGI (SNB-75 CNS) [nM]	GI50 (T-47D breast) [nM]	TGI (T-47D breast) [nM]	GI50 (U251 CNS) [nM]	TGI (U251 CNS) [nM]	GI50 (UO-31 renal) [nM]	TGI (UO-31 renal) [nM]
CCN(CC)c1ccc(/C=N/NC(=O)c2ccccc2Nc2ccnc(C(F)(F)F)c2)c(O)c1	235	> 100000	55	1350	162	518	268	> 100000	175	1190	331	5170	410	> 100000	471	> 100000	103	> 44700	112	5760
C#CCN(Cc1nc2cc(C(F)(F)F)ccc2nc1-c1ccccc1)c1ccc(F)cc1	20400	60900	27100	> 100000	21800	> 100000	21300	60900	56400	> 100000	17900	53500	90300	> 100000	20800	> 100000	38000	> 100000	31200	> 100000
CN1CCN(Cc2ccc(NC(=O)c3cccc(C#Cc4c(N)ncc5ccc(F)cc45)c3)cc2C(F)(F)F)CC1	877	1770	989	2580	626	1880	121	754	463	1240	569	1350	257	866	1050	2650	833	1600	533	1270
C[C@H](C(O)CC(=O)C(C)(C)O)[C@H]1CC[C@@]2(C)[C@@H]3CC[C@H]4C(C)(C)[C@@H](OC5OC(COC6OC(CO)C(O)C(O)C6O)C(O)C(O)C5O)CC[C@]4(C)C3=CC[C@]12C (stereo not given in full)		> 100000		> 100000		> 100000		> 100000		> 100000		> 100000		> 100000		> 100000		> 100000		> 100000
C[C@@]1(O)CCC[C@H]1n1c(=O)c(C(F)F)cc2cnc(NC3CCN(S(C)(=O)=O)CC3)nc21	1660	> 100000	1500	> 100000	1140	5380	1800	> 100000	1750	7620	1290	5370	223	2380	1290	> 100000	1670	> 100000	1200	3970
